The text below walks through data of patent publication US20030166601A1, “Novel colloid synthetic vectors for gene therapy” (priority 1999, published 2003).

Structures are written as SMILES.

The subject of experiment [1] is cultured cells. Description: Transfection of cultured cells, luciferase activity. It is filed as cell-based. An excerpt:
The gene delivery ability of substituted aminoethanols with long chain hydrocarbon (aliphatic) substitutients was studied by transfection of cultured cells and then in vivo by intravenous injection (Table 2 and 3). The substituted aminoethanols have two hydrophilic polar heads connected with one hydrophobic body, which was named bihead lipids. Bihead lipids are proposed to form a monolayer membrane.

For experiment [2], the system named is CD-1 mice. As to the kind of experiment: Luciferase expression in organs after intravenous injection of pCILuc complexes. The class given is in vivo. The following applies: for Luciferase RLU/20 ul lysate heart / Luciferase RLU/20 ul lysate kidney / Luciferase RLU/20 ul lysate liver / Luciferase RLU/20 ul lysate lung / Luciferase RLU/20 ul lysate spleen / Luciferase RLU/20 μl lysate heart / Luciferase RLU/20 μl lysate kidney / Luciferase RLU/20 μl lysate liver / Luciferase RLU/20 μl lysate lung / Luciferase RLU/20 μl lysate spleen: 40 μg pCILuc i.v., 5 h. As to the method: Substituted aminoethanols (cationic compounds) were prepared as described in Examples 1-34. Their gene delivery ability was studied in vivo by intravenous injection (Table 1 and 2) using a standard method. The preparations were administered via tail vein injection to mice and gene expression determined after 5 hours. Female CD-1 mice, 13-15 g, were purchased from Charles River Inc. Forty microgram of pCILuc complexed with GC lipids or GC lipid:Chol dispersion as indicated weight ratios. After 5 h, mice were sacrificed and organs were collected. Organs were homogenized in 0.5 ml of lysis buffer and 20 μl of supernatant was used for luciferase assay. Luciferase activity was represented as a mean of relative light unit (RLU) of four mice. The lipids were either used alone or combined with cholesterol and complexed with a luciferase reporter gene plasmid by a standard procedure at a range of weight and charge ratios. For the in vivo screen, 40 μg of pCILuc was complexed with the formulation and injected into the mice.
All compounds were evaluated for in vivo activity. Two critical factors were examined, formulation with or without cholesterol and the ratio of cationic lipid to DNA. Cholesterol was tested at 1:1 mole ratio of lipid:chol. The studies were performed with a dose of 40 μg of pCILuc complexed with cationic lipid or lipid: Chol (1:1 mole ratio) injected i.v. into CD-1 mice and then luciferase activity in different organs determined 5 h later. The first evaluation included all of 14 GC-lipids at weight ratios of 2 and 10 (GC lipid to DNA). It was performed by four separated experiments. Each time cationic liposome DOTAP:Chol was used as a standard control.
Measurements were repeated with lipids GC-030, GC-034 and GC-029 at wider weight ratios than the first experiment. Luciferase activity is represented as a mean of relative light unit (RLU) of four mice. WR means weight ratio of GC lipids to DNA. The transfection activity was represented by luciferase activity RLU/organ. […] The transfection activity increased with the increased weight ratio (GC lipids to DNA). Inclusion of cholesterol can change the biodistribution of gene expression in the different organs examined. […] However this function of cholesterol was not seen with GC-034.

Take `CCCCCCCCCCCCCCC(O)CN(CCCN)CCCCCCCCCCCCCN(CCCN)CC(O)CCCCCCCCCCCCCC` (stereo not drawn) [CGP44015A]: the “Luciferase activity Ave. RLU × 10000/well FBS(+)” value in experiment [1] (charge ratio (+/−) 0.5) is listed as 130 RLU × 10000/well; in experiment [1] (charge ratio (+/−) 1), 3,373 RLU × 10000/well; in experiment [1] (charge ratio (+/−) 2) it was 17,315 RLU × 10000/well; in experiment [1] (charge ratio (+/−) 4), 25,732 RLU × 10000/well; in experiment [1] (charge ratio (+/−) 6) it was 27,844 RLU × 10000/well; in experiment [1] (charge ratio (+/−) 8) it was 27,298 RLU × 10000/well. Further, the “Luciferase activity Ave. RLU × 10000/well FBS(−)” value is given as 159 RLU × 10000/well in experiment [1] (charge ratio (+/−) 0.5); 3,252 RLU × 10000/well in experiment [1] (charge ratio (+/−) 1); 17,063 RLU × 10000/well in experiment [1] (charge ratio (+/−) 2); 24,484 RLU × 10000/well in experiment [1] (charge ratio (+/−) 4); 24,089 RLU × 10000/well in experiment [1] (charge ratio (+/−) 6); 24,150 RLU × 10000/well in experiment [1] (charge ratio (+/−) 8). The “Luciferase RLU/20 ul lysate heart” value in experiment [2] (CR 0.5) was 74 RLU/20 ul lysate; in experiment [2] (CR 1), 73 RLU/20 ul lysate; in experiment [2] (CR 4), 379 RLU/20 ul lysate; in experiment [2] (CR 10), 103 RLU/20 ul lysate; in experiment [2] (CR 20), 75 RLU/20 ul lysate. For the same compound, the “Luciferase RLU/20 ul lysate kidney” value was determined as 72 RLU/20 ul lysate in experiment [2] (CR 0.5); 71 RLU/20 ul lysate in experiment [2] (CR 1); 528 RLU/20 ul lysate in experiment [2] (CR 4); 281 RLU/20 ul lysate in experiment [2] (CR 10); 70 RLU/20 ul lysate in experiment [2] (CR 20). In addition, the “Luciferase RLU/20 ul lysate liver” value in experiment [2] (CR 0.5) is 86 RLU/20 ul lysate; in experiment [2] (CR 1), 219 RLU/20 ul lysate; in experiment [2] (CR 4), 3,817 RLU/20 ul lysate; in experiment [2] (CR 10), 1,283 RLU/20 ul lysate; in experiment [2] (CR 20) it was 243 RLU/20 ul lysate. For the same compound, the “Luciferase RLU/20 ul lysate lung” value was 82 RLU/20 ul lysate in experiment [2] (CR 0.5); 95 RLU/20 ul lysate in experiment [2] (CR 1); 19,717 RLU/20 ul lysate in experiment [2] (CR 4); 4,470 RLU/20 ul lysate in experiment [2] (CR 10); 84 RLU/20 ul lysate in experiment [2] (CR 20). Besides, the “Luciferase RLU/20 ul lysate spleen” value is 80 RLU/20 ul lysate in experiment [2] (CR 0.5); 168 RLU/20 ul lysate in experiment [2] (CR 1); 4,778 RLU/20 ul lysate in experiment [2] (CR 4); 4,108 RLU/20 ul lysate in experiment [2] (CR 10); 69 RLU/20 ul lysate in experiment [2] (CR 20). The “expression in vivo by core complexes” value in experiment [2] (mouse, in vivo) was “exhibit expression in vivo”.

In the case of `CCCCCCCCCCCCCCC(O)CN(CCN)CCCCCCCCNCCCN` (stereo not drawn) [CGP44207A], the “Luciferase activity Ave. RLU × 10000/well FBS(+)” value in experiment [1] (charge ratio (+/−) 0.5) was found to be 12 RLU × 10000/well; in experiment [1] (charge ratio (+/−) 1), 9 RLU × 10000/well; in experiment [1] (charge ratio (+/−) 2), 12 RLU × 10000/well; in experiment [1] (charge ratio (+/−) 4), 22 RLU × 10000/well; in experiment [1] (charge ratio (+/−) 6) it was 15 RLU × 10000/well; in experiment [1] (charge ratio (+/−) 8), 13 RLU × 10000/well. Further, the “Luciferase activity Ave. RLU × 10000/well FBS(−)” value in experiment [1] (charge ratio (+/−) 0.5) is 12 RLU × 10000/well; in experiment [1] (charge ratio (+/−) 1) it was 11 RLU × 10000/well; in experiment [1] (charge ratio (+/−) 2) it was 15 RLU × 10000/well; in experiment [1] (charge ratio (+/−) 4), 28 RLU × 10000/well; in experiment [1] (charge ratio (+/−) 6), 22 RLU × 10000/well; in experiment [1] (charge ratio (+/−) 8), 17 RLU × 10000/well.

`CCCCCCCCCCCCCCCCCCN(CCCCCCCCCCCCCCCCCC)C(=O)[C@H](CCC(=O)NCCN(CCNC(=O)CC[C@H](NC(=O)[C@H](CCCNCCCN)NCCCN)C(=O)N(CCCCCCCCCCCCCCCCCC)CCCCCCCCCCCCCCCCCC)CCNC(=O)CC[C@H](NC(=O)[C@H](CCCNCCCN)NCCCN)C(=O)N(CCCCCCCCCCCCCCCCCC)CCCCCCCCCCCCCCCCCC)NC(=O)[C@H](CCCNCCCN)NCCCN.O=C(O)C(F)(F)F.O=C(O)C(F)(F)F.O=C(O)C(F)(F)F.O=C(O)C(F)(F)F.O=C(O)C(F)(F)F.O=C(O)C(F)(F)F.O=C(O)C(F)(F)F.O=C(O)C(F)(F)F.O=C(O)C(F)(F)F.O=C(O)C(F)(F)F.O=C(O)C(F)(F)F.O=C(O)C(F)(F)F.O=C(O)C(F)(F)F` [GC-071]: in experiment [2] (WR 2), the “Luciferase RLU/20 μl lysate heart” value stood at 60 RLU/20 μl lysate, the “Luciferase RLU/20 μl lysate kidney” value is given as 58 RLU/20 μl lysate, the “Luciferase RLU/20 μl lysate liver” value was 59 RLU/20 μl lysate and the “Luciferase RLU/20 μl lysate lung” value is 56 RLU/20 μl lysate. Also, in experiment [2] (WR 10), the “Luciferase RLU/20 μl lysate heart” value was 61 RLU/20 μl lysate, the “Luciferase RLU/20 μl lysate kidney” value was 67 RLU/20 μl lysate, the “Luciferase RLU/20 μl lysate liver” value was 531 RLU/20 μl lysate and the “Luciferase RLU/20 μl lysate lung” value amounted to 73 RLU/20 μl lysate. Further, the “Luciferase RLU/20 μl lysate spleen” value in experiment [2] (WR 10) turned out to be 286 RLU/20 μl lysate. Further, the “Luciferase RLU/20 μl lysate spleen” value in experiment [2] (WR (lipid to DNA) 2) is 61 RLU/20 μl lysate.
